From ChEMBL document CHEMBL3244409, “(2,6-Methano-3-benzazocin-11 beta-yl)alkanones. 1. Alkylalkanones: a new series of N-methyl derivatives with novel opiate activity profiles” (1979) come the findings set out here.

What all share (format): functional
The subject of assay [1] is Rattus norvegicus. In words: Analgesic activity in sc dosed rat assessed as inhibition of phenazocine-induced effect.
The subject of assay [2] is Mus musculus. The experiment in a line: Analgesic activity in sc dosed mouse by acetylcholine writhing test. (Writhing tests count abdominal constrictions after an irritant is injected.)
Assay [3] relates to Rattus norvegicus. The experiment in a line: Analgesic activity in sc dosed rat by tail flick test. On the technique in general: In hot-plate and tail-flick tests a longer latency is read as antinociception.
Assay [4] deals with Rattus norvegicus. The experiment in a line: Analgesic activity in sc dosed rat by intracarotid bradykinin test.
The subject of assay [5] is Rattus norvegicus. The experiment in a line: Analgesic activity in sc dosed rat assessed as inhibition of morphine-induced effect.
The subject of assay [6] is Rattus norvegicus. In words: Analgesic activity in sc dosed rat assessed as inhibition of meperidine-induced effect.
The test system of assay [7] is Rattus norvegicus. The experiment in a line: Analgesic activity in rat at 240 mg/kg, sc by tail flick test. As to conditions: route subcutaneous.
Assay [8] has as its system Rattus norvegicus. The experiment in a line: Analgesic activity in rat at 120 mg/kg, sc by tail flick test. The settings on record: route subcutaneous.
The subject of assay [9] is Mus musculus. The experiment in a line: Analgesic activity in mouse at 25 mg/kg, sc by acetylcholine writhing test. As to conditions: route subcutaneous.
[10] abbreviates: Mus musculus, sc, read-out: ED50.
Setting [11] is: Rattus norvegicus, Tail, sc, read-out: ED50.
[12] abbreviates: Rattus norvegicus, sc, read-out: ED50.

As a reminder, the ED50 is the dose at which the effect has come halfway, by size or by number of responders.

For the compound `CC(=O)CC[C@]1(C)C2Cc3ccc(O)cc3[C@@]1(C)CCN2C` (mixture of isomers), the AD50 in assay [1] turned out to be 40 mg/kg. In addition, the ED50 in [2] (setting [10]) came to 0.25 mg/kg.
Take `CCC(=O)CC[C@]1(C)C2Cc3ccc(O)cc3[C@@]1(C)CCN2C.Cl` (mixture of isomers): the AD50 in assay [1] came to 1 mg/kg. Also, the ED50 in assay [2] (setting [10]) was determined as 0.18 mg/kg; in assay [3] (setting [11]), 0.99 mg/kg.
Consider `CCCC(=O)CC[C@]1(C)C2Cc3ccc(O)cc3[C@@]1(C)CCN2C.Cl` (mixture of isomers), for which the AD50 in assay [1] was 80 mg/kg. Besides, the ED50 in [2] (setting [10]) turned out to be 0.023 mg/kg; in assay [4] (setting [12]) it was 0.019 mg/kg; in assay [3] (setting [11]), 0.099 mg/kg.
`CCCCC(=O)CC[C@]1(C)C2Cc3ccc(O)cc3[C@@]1(C)CCN2C.Cl` (mixture of isomers): the AD50 in assay [1] was determined as 0.1 mg/kg. Further, the ED50 worked out at 0.017 mg/kg in [2] (setting [10]), 0.012 mg/kg in assay [4] (setting [12]) and 0.039 mg/kg in [3] (setting [11]).
For the compound `CCCCCC(=O)CC[C@]1(C)C2Cc3ccc(O)cc3[C@@]1(C)CCN2C.Cl` (mixture of isomers), the values for the AD50 in assay [1], in assay [5] and in [6] were 0.008 mg/kg, 0.098 mg/kg and 0.19 mg/kg, respectively. The ED50 was determined as 0.24 mg/kg in assay [2] (setting [10]), 0.043 mg/kg in [4] (setting [12]) and 120 mg/kg in assay [3] (setting [11]).
On to `CCCCCCC(=O)CC[C@]1(C)C2Cc3ccc(O)cc3[C@@]1(C)CCN2C.Cl` (mixture of isomers), for which the AD50 in assay [1] worked out at 0.04 mg/kg. Besides, the values for the ED50 in assay [2] (setting [10]), in [4] (setting [12]) and in assay [3] (setting [11]) were 12 mg/kg, 2.2 mg/kg and 120 mg/kg, respectively.
On to `CC(C)C(=O)CC[C@]1(C)C2Cc3ccc(O)cc3[C@@]1(C)CCN2C.Cl` (mixture of isomers), for which, in assay [1], the AD50 was found to be 80 mg/kg. Also, the ED50 turned out to be 0.11 mg/kg in assay [2] (setting [10]), 0.12 mg/kg in assay [4] (setting [12]) and 24 mg/kg in assay [3] (setting [11]).
Regarding `CC(C)CC(=O)CC[C@]1(C)C2Cc3ccc(O)cc3[C@@]1(C)CCN2C.Cl` (mixture of isomers), the AD50 in assay [1] came out at 0.01 mg/kg. Moreover, the ED50 is 0.019 mg/kg in assay [2] (setting [10]), 0.019 mg/kg in assay [4] (setting [12]) and 0.067 mg/kg in assay [3] (setting [11]).
As for `CC(C)CCC(=O)CC[C@]1(C)C2Cc3ccc(O)cc3[C@@]1(C)CCN2C.Cl` (mixture of isomers), the AD50 in [1] is 0.3 mg/kg; in assay [5], 0.58 mg/kg; in assay [6] it was 0.73 mg/kg. For the same compound, in assay [7], the Activity is listed as 47%. For the same compound, the ED50 in assay [2] was found to be 0.074 mg/kg; in [4] (setting [12]), 0.032 mg/kg.
With `CC(C)CCCC(=O)CC[C@]1(C)C2Cc3ccc(O)cc3[C@@]1(C)CCN2C` (mixture of isomers), the AD50 in [1] was 0.029 mg/kg. In addition, the ED50 in assay [2] (setting [10]) was 5.3 mg/kg; in assay [3] (setting [11]), 120 mg/kg.
Regarding `COc1ccc2c(c1)[C@@]1(C)CCN(C)C(C2)[C@@]1(C)CCC(C)=O.Cl` (mixture of isomers), the Activity in assay [8] came out at 66%. For the same compound, the ED50 in [2] (setting [10]) stood at 3.5 mg/kg.
For `CCC(=O)CC[C@]1(C)C2Cc3ccc(OC)cc3[C@@]1(C)CCN2C.CS(=O)(=O)O` (mixture of isomers), in assay [1], the AD50 was found to be 1 mg/kg. For the same compound, the ED50 came to 1.9 mg/kg in [2] (setting [10]) and 5.9 mg/kg in [3] (setting [11]).
`CCCC(=O)CC[C@]1(C)C2Cc3ccc(OC)cc3[C@@]1(C)CCN2C.CS(=O)(=O)O` (mixture of isomers): the AD50 in [1] was 80 mg/kg. In addition, the ED50 in assay [2] (setting [10]) was determined as 0.89 mg/kg; in [3] (setting [11]), 2 mg/kg.
`CCCCC(=O)CC[C@]1(C)C2Cc3ccc(OC)cc3[C@@]1(C)CCN2C.Cl` (mixture of isomers): the AD50 in [1] stood at 1 mg/kg. For the same compound, the ED50 in [2] (setting [10]) is 0.63 mg/kg; in assay [3] (setting [11]), 1.35 mg/kg.
For the compound `CCCCCC(=O)CC[C@]1(C)C2Cc3ccc(OC)cc3[C@@]1(C)CCN2C.Cl` (mixture of isomers), in assay [1], the AD50 stood at 10 mg/kg. The ED50 was 1.5 mg/kg in assay [2] (setting [10]) and 30 mg/kg in assay [3] (setting [11]).
For the compound `CCCCCCC(=O)CC[C@]1(C)C2Cc3ccc(OC)cc3[C@@]1(C)CCN2C.Cc1ccc(S(=O)(=O)O)cc1` (mixture of isomers), the AD50 in assay [1] came to 80 mg/kg. The same compound displayed an Activity in [9] of 20%. In addition, the ED50 in assay [3] (setting [11]) came to 120 mg/kg.
In the case of `COc1ccc2c(c1)[C@@]1(C)CCN(C)C(C2)[C@@]1(C)CCC(=O)C(C)C.CS(=O)(=O)O` (mixture of isomers), the Activity in [8] is recorded as 42%. Moreover, the AD50 in [1] amounted to 80 mg/kg. In addition, the ED50 in assay [2] (setting [10]) worked out at 5 mg/kg.
`COc1ccc2c(c1)[C@@]1(C)CCN(C)C(C2)[C@@]1(C)CCC(=O)CC(C)C.CS(=O)(=O)O` (mixture of isomers): the AD50 in assay [1] amounted to 80 mg/kg. The ED50 is 1 mg/kg in assay [2] (setting [10]) and 4.3 mg/kg in assay [3] (setting [11]).
With `COc1ccc2c(c1)[C@@]1(C)CCN(C)C(C2)[C@@]1(C)CCC(=O)CCC(C)C.Cl` (mixture of isomers), the AD50 in [1] is 80 mg/kg. Besides, the figures for the ED50 in [2] (setting [10]), in [4] (setting [12]) and in [3] (setting [11]) were 2 mg/kg, 2.4 mg/kg and 16 mg/kg, respectively.
For `COc1ccc2c(c1)[C@@]1(C)CCN(C)C(C2)[C@@]1(C)CCC(=O)CCCC(C)C.Cl` (mixture of isomers), in assay [8], the Activity was 70%. The AD50 in [1] amounted to 80 mg/kg. The ED50 in assay [2] (setting [10]) turned out to be 7.5 mg/kg.
Turning to `CC(=O)CC[C@]1(C)C2Cc3ccc(O)cc3[C@@]1(C)CCN2C.CS(=O)(=O)O` (mixture of isomers), the ED50 came out at 0.19 mg/kg in [4] (setting [12]) and 2.5 mg/kg in assay [3] (setting [11]).
Turning to `CCCCCC(=O)CC[C@]1(C)C2Cc3ccc(O)cc3[C@@]1(C)CCN2C.CS(=O)(=O)O` (single isomer, unassigned; (-)), the AD50 in assay [1] is 0.005 mg/kg. The results for the ED50 in [2], in assay [4] and in [3] were 0.19 mg/kg, 0.022 mg/kg and 95 mg/kg, respectively.
As to `CCCCCC(=O)CC[C@]1(C)C2Cc3ccc(O)cc3[C@@]1(C)CCN2C.CS(=O)(=O)O` (stereo in doubt; (+)-3e), the AD50 in assay [1] came out at 80 mg/kg. The ED50 in assay [2] is 11 mg/kg; in assay [4], 50 mg/kg; in [3] (setting [11]) it was 95 mg/kg.
As for `CC(C)CCC(=O)CC[C@]1(C)C2Cc3ccc(O)cc3[C@@]1(C)CCN2C.Cl` (stereo in doubt; (+)-3i), in [1], the AD50 was 20 mg/kg. The results for the ED50 in assay [2] and in assay [3] (setting [11]) were 10 mg/kg and 120 mg/kg, respectively.
For `CC(C)CCC(=O)CC[C@]1(C)C2Cc3ccc(O)cc3[C@@]1(C)CCN2C.Cl` (stereo in doubt; (-)-3i), in [8], the Activity was 46%. The AD50 in [1] is 0.088 mg/kg. Also, the ED50 in assay [2] amounted to 0.016 mg/kg.
Consider `CO[C@@]12CC[C@@]3(C[C@@H]1[C@](C)(O)C(C)(C)C)[C@H]1Cc4ccc(O)c5c4[C@@]3(CCN1CC1CC1)[C@H]2O5` [BUPRENORPHINE], for which, in assay [8], the Activity came out at 14%. Besides, the AD50 in assay [1] was 0.11 mg/kg. Further, the figures for the ED50 in assay [2] (setting [10]) and in assay [4] (setting [12]) were 0.059 mg/kg and 0.004 mg/kg, respectively.
For the compound `C[C@H]1[C@H]2Cc3ccc(O)cc3[C@]1(C)CCN2CC1CC1` [CYCLAZOCINE], the values for the AD50 in assay [1], in assay [5] and in [6] were 0.028 mg/kg, 0.029 mg/kg and 0.024 mg/kg, respectively.
As for `CN1CC[C@]23c4c5ccc(O)c4O[C@H]2[C@@H](O)C=C[C@H]3[C@H]1C5` [MORPHINE], the median effective dose (ED50) in assay [4] (setting [12]) was determined as 2.3 mg/kg; in [3] (setting [11]), 3.9 mg/kg.
`C=CCN1CC[C@]23c4c5ccc(O)c4O[C@H]2C(=O)CC[C@@]3(O)[C@H]1C5` [NALOXONE]: the AD50 stood at 0.008 mg/kg in [1], 0.004 mg/kg in [5] and 0.004 mg/kg in assay [6]. Moreover, the ED50 in assay [2] (setting [10]) was 60 mg/kg.
